≈ marks a conversion by molar mass, not a printed value. Some results are limits rather than exact numbers.

For assay [1], the system named is Trichophyton rubrum KD-1130. As to the kind of experiment: Antifungal activity evaluation test: minimum inhibitory concentration (MIC), broth dilution by reference to CLSI M38-A2. The class given is cell-based. The settings on record: KD1130, read-out: MIC (T. rubrum). In outline: (§1)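 MIC read visually as lowest concentration inhibiting growth by at least 80% relative to control after 4 days at 35° C. Trichophyton strains inoculated at 2×10^3 cells/mL final in MOPS-buffered RPMI 1640 (pH 7.0); compounds as 2-fold DMSO series, CLSI M38-A2 basis.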
Background: Broth dilution looks for growth in wells or tubes with falling amounts of substance.

Assay [2] deals with Trichophyton mentagrophytes SM-110. The assay is described as above. The following applies: SM110, read-out: MIC (T. menta.). Format: cell-based. Put shortly:
as §1

With `CCCSc1ncc(Oc2ncccc2-c2ccc(F)cc2OC)cn1` [I-186, 2-(propylthio)-5-{[3-(4-fluoro-2-methoxyphenyl)pyridin-2-yl]oxy}-pyrimidine], the MIC in assay [1] and in assay [2] was not above 0.1 µg/mL each time.

Turning to `CCc1ccc(Oc2ncccc2-c2cnccc2Cl)cc1` [I-290, 4′-chloro-2-(4-ethylphenoxy)-3,3′-bipyridine], the minimum inhibitory concentration (MIC) in assay [1] and in assay [2] was not above 0.1 µg/mL in each case.

As to `COCC(F)(F)c1ccc(Oc2ncccc2-c2cccc3c2OCC3)cn1` [I-166, 2-{[6-(1,1-difluoro-2-methoxyethyl)pyridin-3-yl]oxy}-3-(2,3-dihydrobenzofuran-7-yl)pyridine], the MIC in assay [1] and in assay [2] was not above 0.1 µg/mL throughout.

In the case of `CCc1ccc(Oc2ncccc2-c2ccncc2OC)cc1` [I-281, 2-(4-ethylphenoxy)-3′-methoxy-3,4′-bipyridine], the MIC in assay [1] and in assay [2] was not above 0.1 µg/mL each time.

For the molecule `CC(F)(F)c1ccc(Oc2ncccc2-c2cncc(F)c2Cl)cn1` [I-97, 4′-chloro-2-{[6-(1,1-difluoroethyl)pyridin-3-yl]oxy}-5′-fluoro-3,3′-bipyridine], the MIC in assay [1] and in assay [2] was 0.2 to 0.78 µg/mL (≈ 0.547 to 2.13 µM) each time.

For the molecule `Cc1ccncc1-c1cccnc1Oc1ccc(C(C)(F)F)cc1F` [I-303, 2-[4-(1,1-difluoroethyl)-2-fluorophenoxy]-4′-methyl-3,3′-bipyridine], the MIC in assay [1] and in assay [2] was not above 0.1 µg/mL in each case.

`COCC(F)(F)c1ccc(Oc2ncccc2-c2ccc(OC)nc2OC)cn1` [I-460]: the minimal inhibitory concentration (MIC) in assay [1] and in assay [2] was not above 0.1 µg/mL in each case.

In the case of `COc1ccncc1-c1cccnc1Oc1ccc(C)cc1` [I-252, 4′-methoxy-2-(p-tolyloxy)-3,3′-bipyridine], the MIC in assay [1] and in assay [2] was 0.2 to 0.78 µg/mL (≈ 0.684 to 2.67 µM) throughout.

As for `CCOC(=O)c1ccc(Oc2ncccc2-c2cnccc2OC)cc1` [I-245], the MIC in assay [1] and in assay [2] was not above 0.1 µg/mL throughout.

Regarding `COc1ccncc1-c1nccnc1Oc1ccc2c(c1)CCCC2` [I-317, 2-(4-methoxypyridin-3-yl)-3-[(5,6,7,8-tetrahydronaphthalen-2-yl)oxy]pyrazine], the minimal inhibitory concentration (MIC) in assay [1] and in assay [2] was not above 0.1 µg/mL in each case.

With `COc1ccncc1-c1cccnc1Oc1ccc(OCc2ccccc2)nc1` [I-177, 2-{[6-(benzyloxy)pyridin-3-yl]oxy}-4′-methoxy-3,3′-bipyridine], the MIC in assay [1] and in assay [2] was not above 0.1 µg/mL each time.

For `CC(=O)CC(=O)c1ccc(Oc2ncccc2-c2cnccc2C)cc1` [I-424], the values for the MIC in assay [1] and in assay [2] were not above 0.1 µg/mL and 0.2 to 0.78 µg/mL (≈ 0.577 to 2.25 µM), respectively.

Consider `COCC(F)(F)c1ccc(Oc2ncccc2-c2cccc3ccnn23)cc1` [I-413, 7-{2-[4-(1,1-difluoro-2-methoxyethyl)phenoxy]pyridin-3-yl}pyrazolo[1,5-a]pyridine], for which the MIC in assay [1] and in assay [2] was not above 0.1 µg/mL each time.

Regarding `CCc1ccc(Oc2ncccc2-c2cncc(F)c2OC)cc1` [I-283, 2-(4-ethylphenoxy)-5′-fluoro-4′-methoxy-3,3′-bipyridine], the MIC in assay [1] and in assay [2] was not above 0.1 µg/mL in each case.

In the case of `COc1cnccc1-c1cccnc1Oc1ccc(C(C)(F)F)nc1` [I-89, 2-{[6-(1,1-difluoroethyl)pyridin-3-yl]oxy}-3′-methoxy-3,4′-bipyridine], the MIC in assay [1] and in assay [2] was 0.2 to 0.78 µg/mL (≈ 0.583 to 2.27 µM) in each case.

Consider `O=C1CCc2cccc(-c3cccnc3Oc3ccc(C(F)(F)F)nc3)c21` [I-40, 7-(2-{[6-(trifluoromethyl)pyridin-3-yl]oxy}pyridin-3-yl)-2,3-dihydro-1H-inden-1-one], for which the MIC in assay [1] and in assay [2] was 0.2 to 0.78 µg/mL (≈ 0.54 to 2.11 µM) throughout.

As for `FC(F)(F)c1ccc(Oc2ncccc2-c2cccc3ccnn23)cc1` [I-228, 7-{2-[4-(trifluoromethyl)phenoxy]pyridin-3-yl}pyrazolo[1,5-a]pyridine], the MIC in assay [1] and in assay [2] was not above 0.1 µg/mL throughout.

Consider `COc1ccccc1-c1cccnc1Oc1ccc(OC(F)F)cc1` [I-445], for which the MIC in assay [1] and in assay [2] was not above 0.1 µg/mL in each case.

For orientation: MIC means the lowest concentration that inhibits growth of the organism.

The values are drawn from patent US10647675B2 (priority 2015, dated 2020).
